Measured values published in ChEMBL document CHEMBL1140430, “Novel indole-based peroxisome proliferator-activated receptor agonists: design, SAR, structural biology, and biological activities” (J Med Chem, 2005).
The source made the active and inactive calls. No cut-off for these calls is given here.

How the values were obtained:
[1] = target: T1, Peroxisome proliferator-activated receptor gamma (Homo sapiens, UniProt P37231)
T1 sequence (P37231 whole entry): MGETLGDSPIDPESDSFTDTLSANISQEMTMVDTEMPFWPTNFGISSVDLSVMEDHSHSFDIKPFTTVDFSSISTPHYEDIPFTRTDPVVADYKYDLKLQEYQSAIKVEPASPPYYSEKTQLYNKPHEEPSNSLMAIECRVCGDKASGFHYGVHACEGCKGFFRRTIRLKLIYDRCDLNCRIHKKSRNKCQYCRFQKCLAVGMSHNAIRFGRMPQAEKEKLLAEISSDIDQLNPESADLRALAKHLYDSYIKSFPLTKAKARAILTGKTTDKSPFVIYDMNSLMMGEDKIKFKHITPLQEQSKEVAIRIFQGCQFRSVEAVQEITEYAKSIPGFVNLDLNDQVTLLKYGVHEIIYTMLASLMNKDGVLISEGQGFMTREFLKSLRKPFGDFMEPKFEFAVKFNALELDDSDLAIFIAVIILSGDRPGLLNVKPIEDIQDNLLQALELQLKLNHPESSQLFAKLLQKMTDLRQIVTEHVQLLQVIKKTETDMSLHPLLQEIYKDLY
Description: Displacement of [3H]rosiglitazone from human PPAR gamma by SPA assay

[2] = target: T2, Peroxisome proliferator-activated receptor delta (Homo sapiens, UniProt Q03181)
T2 sequence (Q03181 whole entry): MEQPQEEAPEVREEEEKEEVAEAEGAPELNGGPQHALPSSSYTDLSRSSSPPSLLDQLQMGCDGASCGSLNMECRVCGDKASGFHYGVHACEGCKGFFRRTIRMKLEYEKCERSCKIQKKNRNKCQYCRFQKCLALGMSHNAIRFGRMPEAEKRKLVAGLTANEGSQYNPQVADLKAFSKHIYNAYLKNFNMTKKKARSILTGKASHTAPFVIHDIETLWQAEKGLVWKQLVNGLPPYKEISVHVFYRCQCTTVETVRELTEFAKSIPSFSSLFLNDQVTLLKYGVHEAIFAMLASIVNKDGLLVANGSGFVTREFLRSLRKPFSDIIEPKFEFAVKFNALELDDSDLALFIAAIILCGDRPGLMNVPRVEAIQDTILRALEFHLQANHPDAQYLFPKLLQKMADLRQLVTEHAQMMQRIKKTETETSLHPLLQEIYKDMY
Description: Functional activity at human PPAR delta in Huh7 cells by transactivation assay

[3] = target: T1, Peroxisome proliferator-activated receptor gamma; format: functional, cell-based, Huh-7
Description: Functional activity at human PPAR gamma in Huh7 cells by transactivation assay

[4] = target: T3, Peroxisome proliferator-activated receptor alpha (Homo sapiens, UniProt Q07869); assay: Functional activity at human PPAR alpha in Huh7 cells by transactivation assay; format: cell-based, Huh-7
T3 sequence (Q07869 whole entry): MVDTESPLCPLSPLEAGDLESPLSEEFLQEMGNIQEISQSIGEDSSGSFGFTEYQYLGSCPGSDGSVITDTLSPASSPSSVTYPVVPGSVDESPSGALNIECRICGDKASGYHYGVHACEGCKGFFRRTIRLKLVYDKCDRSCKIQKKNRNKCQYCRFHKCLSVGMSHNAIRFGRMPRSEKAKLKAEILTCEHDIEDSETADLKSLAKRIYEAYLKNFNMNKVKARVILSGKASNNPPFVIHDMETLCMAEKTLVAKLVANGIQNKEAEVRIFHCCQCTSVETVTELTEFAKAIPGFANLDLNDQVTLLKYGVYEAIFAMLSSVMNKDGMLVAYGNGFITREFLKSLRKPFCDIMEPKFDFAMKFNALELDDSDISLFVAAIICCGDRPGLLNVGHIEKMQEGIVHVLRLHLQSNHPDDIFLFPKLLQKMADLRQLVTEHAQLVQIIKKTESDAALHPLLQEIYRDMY

Mus musculus [5] = assay: Effect on reduction of plasma glucose in orally dosed KKAy/TaJcl mice at 10 mg/kg in a 10 day study; format: functional, organism-based; set-up: dose 10 mg/kg
Mus musculus [6] = assay: Effect on reduction of plasma glucose in orally dosed KKAy/TaJcl mice at 30 mg/kg in a 10 day study; format: functional, organism-based; set-up: dose 30 mg/kg
[7] = Oral bioavailability in male BALB/c mice administered with 35 mg/kg, po; format: ADME, organism-based; settings: mouse, in vivo
[8] = Area under curve (0-24) in male BALB/c mice administered with 35 mg/kg, po; format: ADME, organism-based; set-up: dose 35 mg/kg, route oral; settings: mouse, in vivo
[9] = Maximum concentration in male BALB/c mice administered with 35 mg/kg, po; format: ADME, organism-based; set-up: dose 35 mg/kg, route oral; settings: mouse, in vivo
[10] = Half life in male BALB/c mice administered with 9.7 mg/kg, iv; format: ADME, organism-based; set-up: dose 9.7 mg/kg, route intravenous; settings: mouse, in vivo
[11] = Area under curve (0-24) in male BALB/c mice administered with 9.7 mg/kg, iv; format: ADME, organism-based; set-up: dose 9.7 mg/kg, route intravenous; settings: mouse, in vivo
[12] = Clearance in male BALB/c mice administered with 9.7 mg/kg, iv; format: ADME, organism-based; set-up: dose 9.7 mg/kg, route intravenous; settings: mouse, in vivo
[13] = Half life in male BALB/c mice administered with 35 mg/kg, po; format: ADME, organism-based; set-up: dose 35 mg/kg, route oral; settings: mouse, in vivo
[14] = Time taken to achieve maximum concentration in male BALB/c mice administered with 35 mg/kg, po; format: ADME, organism-based; set-up: dose 35 mg/kg, route oral; settings: mouse, in vivo
[15] = Volume of distribution in male BALB/c mice administered with 9.7 mg/kg, iv; format: ADME, organism-based; set-up: dose 9.7 mg/kg, route intravenous; settings: mouse, in vivo, read-out: Vss

Compound	IC50 [1] [nM]	EC50 [3] [nM]	EC50 [2] [nM]	EC50 [4] [nM]	further results
CCCc1c(OCCCOc2cccc3c2ccn3CC(=O)O)ccc2cc[nH]c12	4810	1810	420	1210	–
CCCc1c(OCCCOc2cccc3c2ccn3CC(=O)O)ccc2cc(-c3ccccc3)[nH]c12	1680	2820	3340	500	–
CCCc1c(OCCCCCOc2cccc3c2ccn3CC(=O)O)ccc2c(C(F)(F)F)noc12	1780	> 10000	–	–	–
CCCc1c(OCCOc2ccc3c(ccn3CC(=O)O)c2)ccc2c(C(F)(F)F)noc12	422	690	125	311	–
CCCc1c(OCCCOc2ccc3c(ccn3CC(=O)O)c2)ccc2c(C(F)(F)F)noc12 [listing 1 of 2 here]	–	–	–	–	Activity (Mus musculus [5]): Active; Activity (Mus musculus [6]): Active
CCCc1c(OCCCOc2ccc3c(ccn3CC(=O)O)c2)ccc2c(C(F)(F)F)noc12 [listing 2 of 2 here]	–	–	–	14	–
CCCc1c(OCCCOc2ccc3c(ccn3Cc3nn[nH]n3)c2)ccc2c(C(F)(F)F)noc12	1120	898	370	474	–
CCCc1c(OCCCOc2ccc3c(ccn3CC(=O)O)c2)ccc2c(C(=O)C(F)(F)F)c[nH]c12	2410	> 10000	9170	2200	–
CCCc1c(OCCCOc2ccc3ccn(CC(=O)O)c3c2)ccc2c(C(F)(F)F)noc12	1050	1350	80	1820	–
CCCc1c(OCCCCOc2ccc3c(ccn3CC(=O)O)c2)ccc2c(C(F)(F)F)noc12	105	280	243	1040	–
CCCc1c(OCCCOc2ccc3c(ccn3CC(=O)O)c2)ccc2c(-c3ccccc3)noc12	120	290	80	18	–
CCCc1c(OCCCOc2ccc3c(ccn3CC(=O)[O-])c2)ccc2c(C(F)(F)F)noc12.[Na+]	–	–	–	–	bioavailability [7]: 100%; AUC [8]: 652 µg·h/mL; Cmax [9]: 59 µg/mL; half-life [10]: 6.9 h; AUC [11]: 181 µg·h/mL; clearance [12]: 0.9 mL/min/kg; half-life [13]: 7.8 h; Tmax [14]: 4.7 h; Vd [15]: 0.4 L/kg
CCCc1c(OCCCOc2cccc3c2ccn3CC(=O)O)ccc2c(-c3ccccc3)noc12	127	430	320	2	–
CCCc1c(OCCCOc2ccc3c(ccn3CC(=O)O)c2)ccc2c(C#N)c[nH]c12	759	9170	2620	5210	–
CCCc1c(OCCCCOc2cccc3c2ccn3CC(=O)O)ccc2c(C(F)(F)F)noc12	774	1980	> 10000	> 10000	–
CCCc1c(OCC(C)COc2cccc3c2ccn3CC(=O)O)ccc2c(C(F)(F)F)noc12 (stereo not drawn)	1300	3030	–	–	–
CCCc1c(OCCCOc2cccc3c2ccn3CC(=O)O)ccc2c(C(F)(F)F)noc12	1990	2390	610	186	–
CCCc1c(OCCCOc2cccc3c2ccn3CC(=O)O)ccc2c(-c3ccccc3)coc12	3970	4150	2130	169	–

The next lines start with results.

IC50 [1] [nM]	EC50 [3] [nM]	Compound	EC50 [2] [nM]	EC50 [4] [nM]	further results
1450	> 10000	CCCc1c(OCCC(C)CCOc2cccc3c2ccn3CC(=O)O)ccc2c(C(F)(F)F)noc12 (stereo not drawn)	–	–	–
1950	> 10000	CCCc1c(OCCCOc2cccc3c2ccn3CC(=O)O)ccc2cc(-c3ccccc3)oc12	7740	> 10000	–
1050	1490	CCCc1c(OCCCCCOc2ccc3c(ccn3CC(=O)O)c2)ccc2c(C(F)(F)F)noc12	–	–	–
1490	> 10000	CCCc1c(OCCOc2cccc3c2ccn3CC(=O)O)ccc2c(C(F)(F)F)noc12	–	–	–
584	1200	CCCc1c(OCCCOc2ccc3c(ccn3CCC(=O)O)c2)ccc2c(C(F)(F)F)noc12	–	–	–
1100	2190	CCCc1c(OCCCOc2cccc3c2ccn3CCC(=O)O)ccc2c(C(F)(F)F)noc12	–	–	–
1370	> 10000	CCCc1c(OCCC(C)CCOc2ccc3c(ccn3CC(=O)O)c2)ccc2c(C(F)(F)F)noc12 (stereo not drawn)	–	–	–
1280	> 10000	CCCc1c(OCCCOc2cccc3c2ccn3C(CC)C(=O)O)ccc2c(C(F)(F)F)noc12 (stereo not drawn)	–	–	–
1710	5900	CCCc1c(OCCCOc2ccc3c(ccn3C(CC)C(=O)O)c2)ccc2c(C(F)(F)F)noc12 (stereo not drawn)	–	–	–
